Reference: publication PMC4188605, “Biochemical and Pharmacological Characterization of the Human Lymphocyte Antigen B-Associated Transcript 5 (BAT5/ABHD16A)” (PLoS ONE, 2014)
Where two headings read alike, the source gives them in different places.

Key:
hBAT5 [1] = target: T1, hBAT5 (Homo sapiens, UniProt O95870); assay: Free fatty acid release assay, hBAT5-HEK293 lysates; format: biochemical; design: host or cells: HEK293; conditions: 25 µM substrate; without BSA; 10 and 20 min
T1 sequence (O95870 1-558): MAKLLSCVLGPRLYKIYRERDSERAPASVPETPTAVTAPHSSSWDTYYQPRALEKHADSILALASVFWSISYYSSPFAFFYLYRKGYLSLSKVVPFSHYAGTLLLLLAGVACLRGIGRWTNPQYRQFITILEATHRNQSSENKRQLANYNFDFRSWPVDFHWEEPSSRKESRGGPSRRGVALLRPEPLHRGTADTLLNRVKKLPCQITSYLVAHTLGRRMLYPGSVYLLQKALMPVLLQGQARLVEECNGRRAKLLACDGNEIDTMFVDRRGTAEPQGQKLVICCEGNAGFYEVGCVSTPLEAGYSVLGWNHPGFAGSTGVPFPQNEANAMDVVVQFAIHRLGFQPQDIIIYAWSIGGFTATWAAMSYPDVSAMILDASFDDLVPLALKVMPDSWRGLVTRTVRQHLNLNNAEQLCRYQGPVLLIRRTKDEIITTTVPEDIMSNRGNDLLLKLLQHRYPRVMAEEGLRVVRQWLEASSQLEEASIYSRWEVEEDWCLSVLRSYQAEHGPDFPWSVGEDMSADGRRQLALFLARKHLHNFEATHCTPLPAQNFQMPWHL
Protocol: (§1) Figure 4 Fatty acid liberation from various substrates when incubated together with lysates of HEK293 cells expressing hBAT5 or hABHD12. […] Assay blank and fatty acid standard (C18∶1) were included for each condition. FFA content was determined at time-points 10 and 20 min. Data are mean ± SEM from quadruplicate wells in one experiment.
(§2) We adapted the Free Fatty Acid Assay Kit (Cayman Chemical Item Number 700310) to kinetically monitor fatty acid release from selected substrates using lysates of HEK293 cells (0.3 µg/well) transiently expressing hBAT5 or hABHD12 (as a positive control). The assay protocol was tailored to closely follow the scheme of the 96-well-plate glycerol assay with the exception that BSA was omitted. […] For each tested substrate, assay blank without enzyme and a fatty acid standard (C18∶1-FA, 500 pmol/well) was included.

hABHD12 = target: T2, hABHD12 (Homo sapiens, UniProt Q8N2K0); assay: Free fatty acid release assay, hABHD12-HEK293 lysates; format: biochemical; conditions: 25 µM substrate; without BSA; 10 and 20 min
T2 construct: expressed in transfected cells; host or cells: HEK293
T2 sequence (Q8N2K0 1-398): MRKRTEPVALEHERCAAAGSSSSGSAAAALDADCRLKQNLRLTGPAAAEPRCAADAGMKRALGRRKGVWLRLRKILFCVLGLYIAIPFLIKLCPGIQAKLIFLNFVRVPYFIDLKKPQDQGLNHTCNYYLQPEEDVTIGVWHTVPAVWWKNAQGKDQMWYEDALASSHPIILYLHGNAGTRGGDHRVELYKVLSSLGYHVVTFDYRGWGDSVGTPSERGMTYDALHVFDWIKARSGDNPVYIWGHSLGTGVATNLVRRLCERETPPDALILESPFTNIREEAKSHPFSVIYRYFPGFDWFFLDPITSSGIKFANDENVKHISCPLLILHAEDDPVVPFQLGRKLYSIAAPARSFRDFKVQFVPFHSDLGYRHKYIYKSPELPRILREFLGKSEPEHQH
Protocol: as §1, §2

hBAT5 [2] = target: T1, hBAT5; assay: hBAT5 substrate hydrolysis and Michaelis-Menten kinetics (glycerol assay, hBAT5-HEK293 lysates); conditions: 25 µM substrate
Protocol: HEK293 cells were transiently transfected with the cDNA encoding hBAT5, as detailed in the Methods section. After 48 h, cells were harvested and lysates prepared for hydrolase activity measurements using a sensitive fluorescent glycerol assay. […] Glycerol production was determined at time-point 60 min.
After 48 h, cells were harvested and lysates prepared for hydrolase activity measurements. Cellular lysates (0.3 µg/well) were incubated together with the indicated concentrations of 1-LG in assay mixes containing (+ BSA) or not (– BSA) 0.5% (w/v) BSA (A) or with 15d-PGJ2-G in assay mix containing BSA (B). […] As crude cellular lysates were used, total protein concentration was used instead of true enzyme concentration. […] Values are mean ± SEM from three independent experiments.
Glycerol liberated from the hydrolysis of glycerolipid substrates was determined kinetically using a fluorometric assay, essentially as previously described [10]. Briefly, glycerol production was coupled via a three-step enzymatic cascade to hydrogen peroxide (H2O2) dependent generation of resorufin whose fluorescence (λex 530; λem 590 nm) was kinetically monitored using a Tecan Infinite M200 plate reader (Tecan Group Ltd., Männedorf, Switzerland). The assays routinely contained 0.5% (w/v) BSA (essentially fatty acid free) as a carrier for lipophilic compounds. […] The twelve MAG substrates were tested also in assays without BSA. In addition, four commercially available PG-Gs were included. To monitor assay performance, assay blanks without enzyme, cellular background (HEK293/Mock cell lysates) as well as a glycerol standard were included for each tested substrate. Fluorescence of the assay blank was subtracted before calculation of the final results.

MAGL = target: T3, MAGL (Mus musculus, UniProt O35678); assay: Competitive ABPP, mouse brain membrane proteome: MAGL doublet; conditions: reference inhibitor at the indicated concentration, used to identify the band (refs 21, 22)
T3 sequence (O35678 1-303): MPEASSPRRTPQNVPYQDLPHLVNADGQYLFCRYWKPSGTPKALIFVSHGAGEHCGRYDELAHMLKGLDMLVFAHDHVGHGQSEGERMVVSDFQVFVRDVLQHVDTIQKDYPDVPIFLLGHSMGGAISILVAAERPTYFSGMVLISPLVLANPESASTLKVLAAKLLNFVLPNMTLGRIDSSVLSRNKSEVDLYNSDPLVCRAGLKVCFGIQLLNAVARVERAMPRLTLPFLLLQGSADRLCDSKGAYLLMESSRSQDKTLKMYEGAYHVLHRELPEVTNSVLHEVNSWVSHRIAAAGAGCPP

ABHD6 = target: T4, ABHD6 (Mus musculus, UniProt Q8R2Y0); assay: Competitive ABPP, mouse brain membrane proteome: ABHD6 band; conditions: reference inhibitor at the indicated concentration, used to identify the band (refs 18, 23, 24)
T4 sequence (Q8R2Y0 1-336): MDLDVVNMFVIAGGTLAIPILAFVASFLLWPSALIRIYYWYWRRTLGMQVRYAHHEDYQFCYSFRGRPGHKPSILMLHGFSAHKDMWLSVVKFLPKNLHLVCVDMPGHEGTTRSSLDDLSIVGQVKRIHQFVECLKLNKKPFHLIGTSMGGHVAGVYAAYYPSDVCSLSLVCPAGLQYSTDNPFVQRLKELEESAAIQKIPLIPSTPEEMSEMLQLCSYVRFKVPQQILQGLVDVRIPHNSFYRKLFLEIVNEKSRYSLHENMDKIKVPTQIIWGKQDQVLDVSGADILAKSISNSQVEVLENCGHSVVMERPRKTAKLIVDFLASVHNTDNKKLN

hBAT5 [3] = target: T1, hBAT5; assay: Inhibition of 1-LG hydrolysis in hBAT5-HEK293 lysates (fluorescent glycerol assay); format: biochemical; design: host or cells: HEK293; conditions: for hBAT5 inhibitory activity (in words): 1-LG hydrolysis; for remaining activity at 10 µM: at 10^-5 M; for fold decrease in activity when methyl (40) is replaced: 5-position substituent, relative to 40
[4] = 1-LG 25 µM, 30 min inhibitor pretreatment, monitored 90 min, mean, n=3, read-out: IC50
[5] = printed as LogIC50 with negative sign, 1-LG 25 µM, 30 min pretreatment, Figures 9 and 10, read-out: LogIC50 Mean ± SEM, n=3 (converted)

CCCCC/C=C\C/C=C\C/C=C\C/C=C\CCCC(=O)OC[C@@H](O)CO [1-AG, 1-arachidonoylglycerol]
fatty acid release by hBAT5 (in words) (hBAT5 [1]): hydrolyzed | fatty acid release by hABHD12 (in words) (hABHD12): hydrolyzed

CCCCCCCCCCCCCCCCCC(=O)OC[C@@H](O)CO [1-SG]
hydrolysis by hBAT5 (substrate utilization, in words) (hBAT5 [2]; with 0.5% BSA, 60 min): not utilized

O=C(N1CCC(C(c2ccc3c(c2)OCO3)c2ccc3c(c2)OCO3)CC1)n1cncn1 [JJKK-048]
inhibition of probe labeling of MAGL by reference inhibitor (MAGL): inhibited

CCCCCCCC/C=C\CCCCCCCC(=O)OC[C@@H](O)COP(=O)(O)O [LPA, 1-oleoyl-lysophosphatidic acid]
fatty acid release by hBAT5 (in words) (hBAT5 [1]): no statistically significant liberation of oleic acid | fatty acid release by hABHD12 (in words) (hABHD12): not from LPA

CCCCCCCC/C=C\CCCCCCCC(=O)OC[C@@H](O)COP(=O)(O)OC[C@H](N)C(=O)O [LPS, 1-oleoyl-lysophosphatidylserine]
fatty acid release by hBAT5 (in words) (hBAT5 [1]): no statistically significant liberation of oleic acid | fatty acid release by hABHD12 (in words) (hABHD12): catalyzed oleic acid release

CCCCCCCCCCCCCCCC(=O)OC(CO)CO [MAGs C16∶0, 2-palmitoyl-rac–glycerol]
hydrolysis by hBAT5 (substrate utilization, in words) (hBAT5 [2]; without BSA): barely detectable hydrolysis

CCCCC[C@H](O)/C=C/[C@@H]1[C@@H](C/C=C\CCCC(=O)OCC(O)CO)[C@@H](O)C[C@H]1O (stereo partly drawn) [PG-F2α-G, prostaglandin F2α-1-glycerol ester]
hydrolysis by hBAT5 (substrate utilization, in words) (hBAT5 [2]; with 0.5% BSA, 60 min): low

CCCCC[C@H](O)/C=C/[C@H]1C(=O)C[C@H](O)[C@@H]1C/C=C\CCCC(=O)OCC(O)CO (some centres unmarked) [PGD2-G, prostaglandin D2-1-glycerol ester]
hydrolysis by hBAT5 (substrate utilization, in words) (hBAT5 [2]; with 0.5% BSA, 60 min): to lesser extend

CCCCC[C@H](O)/C=C/[C@H]1[C@H](O)CC(=O)[C@@H]1C/C=C\CCCC(=O)OCC(O)CO (some centres unmarked) [PGE2-G, prostaglandin E2-1-glycerol ester]
hydrolysis by hBAT5 (substrate utilization, in words) (hBAT5 [2]; with 0.5% BSA, 60 min): low

CN(Cc1cccc(-c2ccncc2)c1)C(=O)Oc1ccc(-c2ccc(C(N)=O)cc2)cc1 [WWL70]
inhibition of probe labeling of ABHD6 by reference inhibitor (ABHD6): inhibited

COc1nn(-c2ccc([N+](=O)[O-])cc2)c(=O)o1 [compound 41, 5-Methoxy-3-(4-nitrophenyl)-1,3,4-oxadiazol-2(3H)-one]
IC50 (hBAT5 [3]; [4]): 339 nM

COc1nn(-c2ccccc2F)c(=O)o1 [compound 42]
IC50 (hBAT5 [3]; [4]): 50 nM

COc1nn(-c2cccc(F)c2)c(=O)o1 [compound 43]
IC50 (hBAT5 [3]; [5]): 41.7 nM

COc1nn(-c2ccc(Br)cc2)c(=O)o1 [compound 45]
IC50 (hBAT5 [3]; [4]): 110 nM

COc1nn(-c2ccc(I)cc2)c(=O)o1 [compound 46]
IC50 (hBAT5 [3]; [4]): 355 nM

COc1nn(-c2cccc(C#N)c2)c(=O)o1 [compound 47]
IC50 (hBAT5 [3]; [4]): 78 nM

COc1nn(-c2ccccc2C)c(=O)o1 [compound 48]
hBAT5 inhibitory activity (in words) (hBAT5 [3]): inactive | remaining activity at 1 µM (hBAT5 [3]; at 10^-6 M, 1-LG 25 µM): 93.4 ± 1.9%

COc1nn(Cc2cccc(Oc3ccccc3)c2)c(=O)o1 [compound 49]
hBAT5 inhibitory activity (in words) (hBAT5 [3]): loss of hBAT5 inhibitory activity | remaining activity at 10 µM (hBAT5 [3]; 1-LG 25 µM): 102 ± 8.2%

COc1nn(Cc2cccc([N+](=O)[O-])c2)c(=O)o1 [compound 50, 5-Methoxy-3-(3-nitrobenzyl)-1,3,4-oxadiazol-2(3H)-one]
hBAT5 inhibitory activity (in words) (hBAT5 [3]): loss of hBAT5 inhibitory activity | remaining activity at 10 µM (hBAT5 [3]; 1-LG 25 µM): 99.3 ± 4.7%

CCOc1nn(-c2cccc([N+](=O)[O-])c2)c(=O)o1 [compound 51, 5-Ethoxy-3-(3-nitrophenyl)-1,3,4-oxadiazol-2(3H)-one]
IC50 (hBAT5 [3]; [4]): 126 nM | fold decrease in activity when methyl (40) is replaced (hBAT5 [3]): about twofold

O=c1oc(Oc2ccccc2)nn1-c1cccc([N+](=O)[O-])c1 [compound 52, 3-(3-Nitrophenyl)-5-phenoxy-1,3,4-oxadiazol-2(3H)-one]
IC50 (hBAT5 [3]; [4]): 138 nM | fold decrease in activity when methyl (40) is replaced (hBAT5 [3]): about twofold

O=c1oc(OCc2ccccc2)nn1-c1cccc([N+](=O)[O-])c1 [compound 53, 5-(Benzyloxy)-3-(3-nitrophenyl)-1,3,4-oxadiazol-2(3H)-one]
fold decrease in activity when methyl (40) is replaced (hBAT5 [3]): 24 fold | IC50 (hBAT5 [3]; [5]): 1480 nM

COc1ccc(Oc2nn(-c3cccc([N+](=O)[O-])c3)c(=O)o2)cc1 [compound 54, 5-(4-Methoxyphenoxy)-3-(3-nitrophenyl)-1,3,4-oxadiazol-2(3H)-one]
IC50 (hBAT5 [3]; [4]): 631 nM | fold decrease in activity when methyl (40) is replaced (hBAT5 [3]): 10 fold

O=c1oc(Oc2ccc([N+](=O)[O-])cc2)nn1-c1cccc([N+](=O)[O-])c1 [compound 55, 5-(4-Nitrophenoxy)-3-(3-nitrophenyl)-1,3,4-oxadiazol-2(3H)-one]
hBAT5 inhibitory activity (in words) (hBAT5 [3]): weakest inhibitor of this series | remaining activity at 10 µM (hBAT5 [3]; 1-LG 25 µM): 50.5 ± 3.7%
